Test results taken from patent publication US20260000695A1, “SOLID AND ORAL ETOPOSIDE TONIRIBATE COMPOSITIONS” (CELLACT PHARMA GMBH, priority 2022, published 2026).

How the values were obtained:
[1] = Table 9A: HPLC peaks over storage time, sample and storage not described; assay type: physicochemical
[2] = Solubility and pH stability of the API; assay type: physicochemical
[3] = API; cited from earlier work

Peak %, CAP 7.1 RT: 20.25 ([1]; 5 days): 98.83% | Peak %, RRT:0.51 RT:10.43 ([1]; 5 days): 0.09% | Peak %, RRT: 0.54 RT: 10.89 (Etoposide) ([1]; 5 days): 0.17% | Peak %, RRT: 0.95 RT: 19.13 ([1]; 5 days): 0.09% | Peak %, RRT: 0.97 RT: 19.67 ([1]; 5 days): 0.67% | Peak %, RRT: 1.10 RT: 22.32 ([1]; 5 days): 0.04% | Peak %, RRT: 1.15 RT: 23.46 ([1]; 5 days): 0.07% | Peak %, RRT: 1.19 RT: 24.11 ([1]; 5 days): 0.04% | Peak %, CAP 7.1 RT: 20.25 ([1]; 12 days): 98.58% | Peak %, RRT:0.51 RT:10.43 ([1]; 12 days): 0.09% | Peak %, RRT: 0.54 RT: 10.89 (Etoposide) ([1]; 12 days): 0.22% | Peak %, RRT: 0.95 RT: 19.13 ([1]; 12 days): 0.09% | Peak %, RRT: 0.97 RT: 19.67 ([1]; 12 days): 0.87% | Peak %, RRT: 1.10 RT: 22.32 ([1]; 12 days): 0.03% | Peak %, RRT: 1.15 RT: 23.46 ([1]; 12 days): 0.07% | Peak %, RRT: 1.19 RT: 24.11 ([1]; 12 days): 0.04% | Peak %, CAP 7.1 RT: 20.25 ([1]; 17 days): 98.18% | Peak %, RRT:0.51 RT:10.43 ([1]; 17 days): 0.17% | Peak %, RRT: 0.54 RT: 10.89 (Etoposide) ([1]; 17 days): 0.33% | Peak %, RRT: 0.95 RT: 19.13 ([1]; 17 days): 0.10% | Peak %, RRT: 0.97 RT: 19.67 ([1]; 17 days): 1.10% | Peak %, RRT: 1.10 RT: 22.32 ([1]; 17 days): 0.04% | Peak %, RRT: 1.15 RT: 23.46 ([1]; 17 days): 0.04% | Peak %, RRT: 1.19 RT: 24.11 ([1]; 17 days): 0.04% | Peak %, CAP 7.1 RT: 20.25 ([1]; initial): 99.21% | Peak %, RRT: 0.54 RT: 10.89 (Etoposide) ([1]; initial): 0.10% | Peak %, RRT: 0.95 RT: 19.13 ([1]; initial): 0.10% | Peak %, RRT: 0.97 RT: 19.67 ([1]; initial): 0.48% | Peak %, RRT: 1.10 RT: 22.32 ([1]; initial): 0.05% | Peak %, RRT: 1.15 RT: 23.46 ([1]; initial): 0.04% | Peak %, RRT: 1.19 RT: 24.11 ([1]; initial): 0.03% | solubility in water or aqueous buffer systems [2]: practically insoluble
Structure (SMILES): COc1cc([C@@H]2c3cc4c(cc3[C@@H](O[C@@H]3O[C@@H]5CO[C@@H](C)O[C@H]5[C@@H](O)[C@H]3O)[C@H]3COC(=O)[C@H]23)OCO4)cc(OC)c1OC(=O)OCC1COC(C)(C)O1 (stereo partly shown) [CAP 7.1, Etoposide toniribate]
solubility in water [3]: poorly soluble | stability at acidic and basic pH [3]: unstable
